Measured values: the supplement of paper PMC11451515

Tests used:
Details in all cases: 48 h
[1] = tested on: SEM cells; assay: AUC of viability dose-response curve (% viability x log10 dose units); higher = less sensitive
In short: (§1)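 Medium-adapted leukemia cells in 1536-well plates, at 500 or 1000 cells/well, were incubated for 48 h at 37°C with library compounds in DMSO at 11 threefold doses from 47 μM to 0.79 nM. CellTiter-Glo One luminescence normalised per plate to DMSO and cell-free wells was fitted with a four-parameter log-logistic model over log10 doses. Area under the curve was integrated from this fit by trapezoidal rule, with curves beyond full viability scaled and failed quality-control curves removed.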

[2] = tested on: NOMO1; assay: as above
In short: as §1

[3] = tested on: P12-Ichikawa; assay: as above
In short: as §1

[4] = tested on: SEM cells; assay: cell viability relative to DMSO control; higher = less cytotoxic
In short: (§2)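 Library compounds in DMSO were pin-dosed in an 11-point threefold series (47 μM to 0.79 nM) onto leukemia cells in 1536-well plates (5 μl). Plates held 500 cells/well of NOMO1 or SEM or 1000 cells/well of P12-Ichikawa, each adapted for at least four passages in each medium. Luminescence was read with CellTiter-Glo One after 48 h at 37°C. Viability means the per-plate percentage relative to DMSO wells, using cell-free wells as background.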

[5] = tested on: P12-Ichikawa; assay: as above
In short: as §2

C=CC(=O)Nc1cc(NC(=O)c2ccc(C)c(NC(=O)c3ccno3)c2)cc(C(F)(F)F)c1
AUC of viability dose-response curve
Details	[1]	[2]	[3]
HPLM + 10% dialyzed FBS	423	431	459
RPMI 5 mM glucose + 10% FBS	451	457	454
RPMI 5 mM glucose + 10% dialyzed FBS	438	467	452

O=C(N[C@H](CO)[C@H](O)c1ccc([N+](=O)[O-])cc1)C(Cl)Cl
[4], HPLM + 10% dialyzed FBS
Details	cell viability [%]
0.000781 µM	115
0.00234 µM	119
0.00702 µM	125
0.0211 µM	121
0.0632 µM	126
0.19 µM	125
0.569 µM	128
1.71 µM	132
5.12 µM	128
15.4 µM	118
46.1 µM	113

AUC of viability dose-response curve
Details	[1]	[2]	[3]
HPLM + 10% dialyzed FBS	474	477	471
RPMI 5 mM glucose + 10% FBS	475	467	466
RPMI 5 mM glucose + 10% dialyzed FBS	475	467	462

CCN[C@H]1C[C@H](C)[S+](=O)([O-])c2sc([S+](N)(=O)[O-])cc21
[4], HPLM + 10% dialyzed FBS
Details	cell viability [%]
0.000781 µM	137
0.00234 µM	100
0.00702 µM	120
0.0211 µM	126
0.0632 µM	36.4
0.19 µM	129
0.569 µM	135
1.71 µM	126
5.12 µM	52.8
15.4 µM	131
46.1 µM	118

AUC of viability dose-response curve
Details	HPLM + 10% dialyzed FBS	RPMI 5 mM glucose + 10% FBS	RPMI 5 mM glucose + 10% dialyzed FBS
[2]	434	452	415
[3]	460	440	471

O=c1cc(-c2ccc(O)c(O)c2)oc2cc(O)cc(O)c12
[4], HPLM + 10% dialyzed FBS
Details	cell viability [%]
0.000781 µM	107
0.00234 µM	113
0.00702 µM	126
0.0211 µM	127
0.0632 µM	134
0.19 µM	134
0.569 µM	142
1.71 µM	152
5.12 µM	156
15.4 µM	129
46.1 µM	129

AUC of viability dose-response curve
Details	[1]	[2]	[3]
HPLM + 10% dialyzed FBS	449	458	473
RPMI 5 mM glucose + 10% FBS	454	461	464
RPMI 5 mM glucose + 10% dialyzed FBS	459	461	467

OC1=CC=C(C=C1)\C2=C(O)\C(=O)C3=C(O2)C=C(O)C=C3O
[4], RPMI 5 mM glucose + 10% FBS
Details	cell viability [%]
0.000781 µM	119
0.00234 µM	100
0.00702 µM	116
0.0211 µM	127
0.0632 µM	127
0.19 µM	133
0.569 µM	135
1.71 µM	128
5.12 µM	127
15.4 µM	123
46.1 µM	87.2

AUC of viability dose-response curve
Details	[1]	[2]	[3]
HPLM + 10% dialyzed FBS	466	443	465
RPMI 5 mM glucose + 10% FBS	469	458	437
RPMI 5 mM glucose + 10% dialyzed FBS	470	466	449

Nc1ncnc2c1c(-c1cccc(OCc3ccccc3)c1)cn2[C@H]1C[C@@H](CN2CCC2)C1
cell viability [%], [4]
Details	HPLM + 10% dialyzed FBS	RPMI 5 mM glucose + 10% FBS
0.000781 µM	103	110
0.00234 µM	125	115
0.00702 µM	119	121
0.0211 µM	123	107
0.0632 µM	117	112
0.19 µM	126	107
0.569 µM	109	123
1.71 µM	114	117
5.12 µM	96.4	111
15.4 µM	75.3	91.3
46.1 µM	62.9	64.4

AUC of viability dose-response curve
Details	[1]	[2]	[3]
HPLM + 10% dialyzed FBS	437	433	458
RPMI 5 mM glucose + 10% FBS	456	459	465
RPMI 5 mM glucose + 10% dialyzed FBS	436	450	467

COc1nc(C)cnc1N[S+](=O)([O-])c1cccnc1-c1ccc(-c2nnco2)cc1
AUC of viability dose-response curve
Details	HPLM + 10% dialyzed FBS	RPMI 5 mM glucose + 10% FBS	RPMI 5 mM glucose + 10% dialyzed FBS
[1]	471	452	460
[2]	465	455	474

Cc1ccc2c(=O)c3cccc(CC(=O)O)c3oc2c1C
AUC of viability dose-response curve
Details	[1]	[2]	[3]
HPLM + 10% dialyzed FBS	447	435	471
RPMI 5 mM glucose + 10% FBS	440	471	464
RPMI 5 mM glucose + 10% dialyzed FBS	449	429	460

Cc1cnc(Nc2ccc(F)cc2Cl)nc1-c1c[nH]c(C(=O)N[C@H](CO)c2cccc(Cl)c2)c1
[4], HPLM + 10% dialyzed FBS
Details	cell viability [%]
0.000781 µM	109
0.00234 µM	125
0.00702 µM	114
0.0211 µM	137
0.0632 µM	126
0.19 µM	134
0.569 µM	134
1.71 µM	125
5.12 µM	136
15.4 µM	121
46.1 µM	84.9

AUC of viability dose-response curve
Details	[1]	[2]	[3]
HPLM + 10% dialyzed FBS	467	353	389
RPMI 5 mM glucose + 10% FBS	452	335	384
RPMI 5 mM glucose + 10% dialyzed FBS	443	364	411

COc1cc(C(=O)N2CC[C@@H](O)[C@@H](N)C2)cc2nc(-c3cc4ccccc4n3CC3CC3)n(C)c12
cell viability [%]
Details	[4]	[5]
HPLM + 10% dialyzed FBS, 0.000781 µM	97.9	117
HPLM + 10% dialyzed FBS, 0.00234 µM	118	116
HPLM + 10% dialyzed FBS, 0.00702 µM	116	123
HPLM + 10% dialyzed FBS, 0.0211 µM	124	121
HPLM + 10% dialyzed FBS, 0.0632 µM	119	121
HPLM + 10% dialyzed FBS, 0.19 µM	117	44.3
HPLM + 10% dialyzed FBS, 0.569 µM	124	31
HPLM + 10% dialyzed FBS, 1.71 µM	51.1	27.5
HPLM + 10% dialyzed FBS, 5.12 µM	28.6	29
HPLM + 10% dialyzed FBS, 15.4 µM	27.4	23.8
HPLM + 10% dialyzed FBS, 46.1 µM	20.1	18.6
RPMI 5 mM glucose + 10% FBS, 0.000781 µM	–	119
RPMI 5 mM glucose + 10% FBS, 0.00234 µM	–	127
RPMI 5 mM glucose + 10% FBS, 0.00702 µM	–	123
RPMI 5 mM glucose + 10% FBS, 0.0211 µM	–	122
RPMI 5 mM glucose + 10% FBS, 0.0632 µM	–	137
RPMI 5 mM glucose + 10% FBS, 0.19 µM	–	117
RPMI 5 mM glucose + 10% FBS, 0.569 µM	–	111
RPMI 5 mM glucose + 10% FBS, 1.71 µM	–	33.4
RPMI 5 mM glucose + 10% FBS, 5.12 µM	–	25.9
RPMI 5 mM glucose + 10% FBS, 15.4 µM	–	21.5
RPMI 5 mM glucose + 10% FBS, 46.1 µM	–	11.2

AUC of viability dose-response curve
Details	[1]	[2]	[3]
HPLM + 10% dialyzed FBS	357	294	279
RPMI 5 mM glucose + 10% FBS	276	327	336
RPMI 5 mM glucose + 10% dialyzed FBS	335	338	324

c1nc2c(NC3CCCCC3)nc(Nc3ccc(N4CCOCC4)cc3)nc2[nH]1
cell viability [%], [4]
Details	HPLM + 10% dialyzed FBS	RPMI 5 mM glucose + 10% FBS
0.000781 µM	121	110
0.00234 µM	118	113
0.00702 µM	114	132
0.0211 µM	120	121
0.0632 µM	131	120
0.19 µM	116	131
0.569 µM	120	111
1.71 µM	112	95.9
5.12 µM	36.8	20.5
15.4 µM	28.4	13.7
46.1 µM	29.3	14.4

AUC of viability dose-response curve
Details	[1]	[2]	[3]
HPLM + 10% dialyzed FBS	386	403	377
RPMI 5 mM glucose + 10% FBS	364	399	364
RPMI 5 mM glucose + 10% dialyzed FBS	363	405	384
